Values quoted from earlier work as cited in patent publication US20070071809A1, “Ginger containing compositions to control pain” (priority 2005, published 2007).

System: osteoarthritis of the knee
Details: 1500 mg per day

N[C@H]1C(O)O[C@H](CO)[C@@H](O)[C@@H]1O (some centres unmarked) [Glucosamine]
knee pain in patients with osteoarthritis of the knee (212 patients, half glucosamine, half placebo): reduce knee pain
pain scores versus placebo group (placebo group had worsened pain scores): statistically improved pain scores
